# Laboratory results from US6322771A, “Induction of pharmacological stress with adenosine receptor agonists” (priority 1999, dated 2001).
# Where two headings read alike, the source gives them in different places.
# Tests used:
# A1 adenosine receptors = details: A1 versus A2A adenosine receptors; cited from earlier work
# [1] = system: dog with critical LAD stenosis
# Procedure: Following a 15 minute baseline stabilization period, the LAD snare occluder was tightened to produce a critical LAD stenosis. A critical stenosis was defined as one that produced no change in resting coronary flow, however coronary flow reserve was completely abolished. […] Five minutes later, an in vivo image was acquired and the animal was then immediately killed to prevent ^99m Tc-N-NOET redistribution. The heart was removed and sliced into 4 rings from apex to base. The heart slices were placed on a cardboard sheet, covered with plastic wrap, and ex vivo imaging of the heart slices was performed directly on the collimator of a conventional planar gamma camera. Image background subtraction was performed on the in vivo image using standard nuclear medicine software developed for this purpose. Defect magnitude was expressed as an LAD/LCX count ratio between counts in LAD and LCX regions of interest drawn on the in vivo and ex vivo heart images.
# adult mongrel dogs = details: for LCX coronary flow: baseline 42 ml/min
# patients [2] = details: 9,256 patients; cited from earlier work
# patients [3] = details: 3,911 patients; cited from earlier work
# patients [4] = details: 3,715 patients; cited from earlier work
structure (smiles),measurement,setting,value
"Nc1nc(Cl)nc2c1ncn2[C@@H]1O[C@H](CO)[C@@H](O)[C@H]1O [Cl-Ado, 2-chloroadenosine]",receptor subtype preference as activator,A1 adenosine receptors,more potent activator of A1 adenosine receptors than of A2A adenosine receptors
CCNC(=O)[C@H]1O[C@@H](n2cnc3c(N)nc(C#CC[C@H]4CC[C@H](C(=O)OC)CC4)nc32)[C@H](O)[C@@H]1O [DWH-146e],increase of coronary flow in the normal LCX coronary artery,[1]; 0.3 μg/kg/min i.v. infusion,~5 fold
same,in vivo and ex vivo 99mTc-N-NOET images,[1]; critical LAD stenosis,readily detectable large anteroseptal perfusion defects
same,change in mean arterial pressure,"[1]; dog, in vivo",no change
same,Heart Rate,"[1]; peak, 0.3 μg/kg/min i.v. infusion, baseline 109, stenosis 123",143 BPM
same,dP/dt,"[1]; peak, 0.3 μg/kg/min i.v. infusion, baseline 2906, stenosis 2713",2606 mm Hg · sec-1
same,LCX coronary flow,"[1]; peak, 0.3 μg/kg/min i.v. infusion, normal artery, baseline 39, stenosis 38",185 mL/min
same,LAD Coronary Flow,"[1]; peak, 0.3 μg/kg/min i.v. infusion, stenosed artery, baseline 39, stenosis 37",42 mL/min
"CCNC(=O)[C@H]1O[C@@H](n2cnc3c(N)nc(C#CCC4CCC(COC(C)=O)CC4)nc32)[C@H](O)[C@@H]1O (stereo partly drawn) [JMR-193e, [4-(3-{9[(4S,5S,2R,3R)-5-(N-ethylcarbamoyl)-3,4-dihydroxyoxolan-2-yl]-6-aminopurin-2-yl}prop-2-ynyl)cyclohexyl]methyl acetate]",LCX coronary flow,adult mongrel dogs; 0.05 μg/kg/min x 10 min i.v. infusion,66 mL/min
same,LCX coronary flow,adult mongrel dogs; 0.1 μg/kg/min x 10 min i.v. infusion,75 mL/min
same,LCX coronary flow,adult mongrel dogs; 0.2 μg/kg/min x 10 min i.v. infusion,124 mL/min
same,LCX coronary flow,adult mongrel dogs; 0.3 μg/kg/min x 10 min i.v. infusion,153 mL/min
same,LCX coronary flow,adult mongrel dogs; 0.4 μg/kg/min x 10 min i.v. infusion,140 mL/min
same,time flow remained elevated more than 2x normal,adult mongrel dogs; bolus 0.3 μg/kg,3 to 4 min
same,time of maximal LCX flow post-injection,adult mongrel dogs; bolus 0.3 μg/kg,2.3 min
same,LCX flow,"adult mongrel dogs; bolus 0.3 μg/kg, from 41 ml/min",140 mL/min
same,pharmacodynamic t1/2,adult mongrel dogs; return of hemodynamics to baseline after terminating the infusion,12 ± 2 min
Nc1ncnc2c1ncn2[C@@H]1O[C@H](CO)[C@@H](O)[C@H]1O [adenosine],LCX flow,adult mongrel dogs; i.v. 250 μg/kg/min x 3 min,139 mL/min
same,arterial pressure,"adult mongrel dogs; i.v. 250 μg/kg/min x 3 min, from 109 mm Hg",80 mm Hg
same,A-V conduction block,patients [2],8%
same,ECG changes,patients [2],9%
same,chest pain,patients [2],35%
same,flushing,patients [2],37%
same,headache,patients [2],14%
same,patients with adverse side effects,patients [2],82%
same,shortness of breath or dyspnea,patients [2],35%
OCCN(CCO)c1nc(N2CCCCC2)c2nc(N(CCO)CCO)nc(N3CCCCC3)c2n1 [dipyridamole],ST-segment changes on ECG,patients [3],8%
same,headaches,patients [3],12%
same,fall of mean systolic blood pressure,patients [4],14 mm Hg
same,patients with a >20% drop in systolic blood pressure,patients [4],11%
